Reference: patent publication US7585826B2, “Compositions counteracting pesticides and malodorants” (priority 2007, dated 2009)

Assay: Decomposition rate of 17 pesticides mixed with the composition prepared in Example 1 (HPLC), against tap water or 10% brine controls
Format: physicochemical
Conditions: 10 ppm pesticide, composition of Example 1, 5 min; among seventeen pesticides
Method: The above-prepared composition was tested to decompose 17 pesticides, i.e., Diazinon, Terbufos, Acephate, Glyphosate, Phosmet, Mevinphos, Benomyl, Metalaxyl, Pyrnetrozine, Methomyl, Fenobucard, Carbendazim, Pencycuron, Hexaconazole, Thiophanate-methyl, Cartap, and Thiabendazole. The decomposition rates were measured as follows:
Each pesticide was dissolved in tap water at a concentration of 10 ppm. 10 mL pesticide solution was mixed with 10 mL of the composition prepared in Example 1 for 5 min. 10 mL pesticide solution was also mixed with 10 mL tap water or 10 mL 10% brine solution to prepare control solution. The pesticide concentration of each tested reaction solution was measured by high performance liquid chromatography.

Row | SMILES | decomposition rate compared with the other pesticides tested
1 | COP(=O)(NC(C)=O)SC (stereo not shown) [Acephate] | higher rates than the others
2 | CCCCC(O)(Cn1cncn1)c1ccc(Cl)cc1Cl (stereo not shown) [Hexaconazole] | higher rates than the others
3 | CCOP(=S)(OCC)SCSC(C)(C)C [Terbufos] | higher rates than the others

Assay: Time-course decomposition of pesticides reacted with the composition prepared in Example 1 (HPLC)
Format: physicochemical
Conditions: 7.5 mL of 10 ppm pesticide + 2.5 mL composition of Example 1; after 5.0 min reaction time
Method: 7.5 mL of a pesticide solution, containing 10 ppm Terbufos, Diazinon, Hexaconazole, or Fenobucard, was allowed to react with 2.5 mL of the composition prepared in Example 1 for 1.0 min, 3.0 min, and 5.0 min, respectively. HPLC was used to determine the concentrations of the pesticide.

Row | SMILES | pesticide decomposed [%]
4 | CCOP(=S)(OCC)Oc1cc(C)nc(C(C)C)n1 [Diazinon] | 87
5 | CCC(C)c1ccccc1OC(=O)NC (stereo not shown) [Fenobucard] | 76
6 | CCCCC(O)(Cn1cncn1)c1ccc(Cl)cc1Cl (stereo not shown) [Hexaconazole] | 85
7 | CCOP(=S)(OCC)SCSC(C)(C)C [Terbufos] | 91
